The structures appear in SMILES notation.

Data set [1] in a line: Liver microsomal stability (rat). It counts as in vitro ADME. A digest of the protocol: (§1)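 Human, mouse and rat liver microsomes were incubated with NADPH and MgCl2 in 0.1 M Tris pH 7.4, with compound at a 0.2 μM working solution. Remaining compound was quantified by LC/MS over the incubation time. The slope of log remaining versus time gave Clint, which was scaled to predicted Cl, Clhep and % MF.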

The nature of data set [2]: Liver microsomal stability (human). It counts as in vitro ADME. The method in brief:
as §1
In general terms: Liver microsomes are vesicles of endoplasmic reticulum, rich in cytochrome P450 enzymes.

The test system of the next data set is Karpas-422 cells. As to the kind of experiment: Growth inhibition of Karpas-422 cells in a long term (11 days), CellTiter-Glo. It counts as cell-based, Human. The conditions noted are these: Homo sapiens, 264 h; Karpas-422, 11 days; read-out: Karpas-422 (11 days) IC50. A general note: Cellular ATP, detected with luciferase, serves as a proxy for viable cell number.

For the next data set, the system named is Pfeiffer cells. As to the kind of experiment: Pfeiffer cell growth inhibition in a long term (11 days), CellTiter-Glo. It counts as cell-based, Human. As to conditions: Homo sapiens, 264 h, 11 days, read-out: Experiment on Pfeiffer cell growth inhibition in a long term (11 days IC50). The method in brief: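 Exponentially growing cells seeded at 1*10E5 cells/mL and treated the same day with a concentration range. Media and compound were refreshed at days 4 and 7. Viability was read by CellTiter-Glo after 11 days and GI50 values were derived.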

As for `CS(=O)(=O)N1CC=C(c2cnc(NCc3c(F)ccc4c3CCO4)n3cnnc23)CC1` [E-Y13], in data set [1] (rat liver microsomes), the “Clearance rate in vivo Clint In Vivo Extpl” value came out at 15.9 mL/min, the “Intrinsic clearance rate in vivo Clint In Vitro” value came to 35.2 mL/min/gprot, the “Liver clearance rate Clint Hep In Vivo Extpl” value stood at 8.85 mL/min and the “Metabolic bioavailability MF %” value is 53.9%. Moreover, the half-life (commonly how long it takes for the measured level to halve) in data set [1] (rat, liver microsomes, pH 7.4, rat liver microsomes, read-out: Half life T-half) stood at 0.92 h. Besides, in data set [2] (human liver microsomes), the “Clearance rate in vivo Clint In Vivo Extpl” value came to 1732 mL/min, the “Intrinsic clearance rate in vivo Clint In Vitro” value is recorded as 22.6 mL/min/gprot and the “Liver clearance rate Clint Hep In Vivo Extpl” value came to 804 mL/min. In data set [2] (human, liver microsomes, pH 7.4, human liver microsomes, read-out: Half life T-half), the half-life was found to be 1.55 h. In data set [2] (human, liver microsomes, pH 7.4, human liver microsomes, read-out: Metabolic bioavailability MF %), the bioavailability – broadly, the share of a dose that reaches the circulation, judged against a reference dose that is usually intravenous – worked out at 46.4%. In addition, in the data set on Karpas-422 cells, the IC50 (commonly the concentration at which inhibition is half-maximal) was determined as 13 nM. For the same molecule, the IC50 with Pfeiffer cells came out at 3.2 nM.
